ChEMBL document CHEMBL5512613, “Design and synthesis of novel 3-amino-5-phenylpyrazole derivatives as tubulin polymerization inhibitors targeting the colchicine-binding site” (Eur J Med Chem, 2024)
Active and inactive are the calls of the source. The calls are words filed in the database; no cut-off is given here.

Tests used:
[1] = biological target: T1, Tubulin (Homo sapiens) (UniProt P68371+Q9H4B7+P0DPH7+P68366+Q13509+Q71U36+P04350+Q3ZCM7+P07437+P68363+Q9BQE3+Q6PEY2+Q13885+Q9BVA1+Q9BUF5); assay: Displacement of [3H]colchicine from tubulin (unknown origin) at 5 uM incubated for 2 hrs by scinitillation proximity assay; assay type: protein-complex assay
[2] = biological target: T1, Tubulin (Homo sapiens); assay: Inhibition of tubulin polymerization in human MCF7 cells assessed as disruption of microtubule network into punctate at 25 to 200 nM incubated for 8 hrs by DAPI staining based immunofluorescence assay; assay type: cell-based; settings: dose 25-200 nM
[3] = tested on: HT-29; assay: Antiproliferative activity against human HT-29 cells assessed as inhibition of cell growth incubated for 48 hrs by MTT assay; assay type: functional, cell-based; settings: HT-29, 48 h
[4] = tested on: MCF7; assay: Induction of apoptosis in human MCF7 cells assessed as increase in cleaved caspase-9 protein expression at 6.25 to 50 nM incubated for 24 hrs by western blot analysis; assay type: functional, cell-based; settings: dose 6.25-50 nM
[5] = tested on: A549; assay: Inhibition of cell migration in human A549 cells at 2.5 to 10 nM incubated for 12 to 48 hrs by fluorescent inverted microscopy; assay type: functional, cell-based; settings: dose 2.5-10 nM, time 12-48 hrs
[6] = tested on: MCF7; assay: Induction of cell cycle arrest in human MCF7 cells assessed as proportion of cells at G2 phase at 12.5 nM incubated for 24 hrs by PI staining based flow cytometry (reference value: 14.4%); assay type: functional
[7] = tested on: MCF7; assay: Induction of cell cycle arrest in human MCF7 cells assessed as proportion of cells at G1 phase at 25 nM incubated for 24 hrs by PI staining based flow cytometry (reference value: 64.5%); assay type: functional
[8] = tested on: MCF7; assay: Induction of apoptosis in human MCF7 cells assessed as increase in Bim protein expression at 6.25 to 50 nM incubated for 24 hrs by western blot analysis; assay type: functional, cell-based; settings: dose 6.25-50 nM
[9] = Toxicity against BALB/c mouse xenografted with human MCF7 cells assessed as body weight changes at 5 to 20 mg/kg, ip administered every 3 days for 21 days; assay type: organism-based; settings: in vivo, 504 h, dose 5-20 mg/kg, time 21 day
[10] = tested on: MCF7; assay: Induction of cell cycle arrest in human MCF7 cells assessed as proportion of cells at G2 phase at 25 nM incubated for 24 hrs by PI staining based flow cytometry (reference value: 14.4%); assay type: functional
[11] = Cytotoxicity against human L02 cells assessed as inhibition of cell growth incubated for 48 hrs by MTT assay; assay type: toxicity, cell-based
[12] = tested on: MCF7; assay: Induction of cell cycle arrest in human MCF7 cells assessed as increase in CDK7 protein expression at 6.25 to 50 nM incubated for 24 hrs by western blot analysis; assay type: functional, cell-based; settings: dose 6.25-50 nM
[13] = tested on: MCF7; assay: Antitumor activity against human MCF7 cells xenografted in BALB/c mouse assessed as inhibition of tumor growth by measuring decrease in tumor weight at 10 mg/kg, ip administered every 3 days for 21 days; assay type: functional; settings: MCF7, 504 h, time 21 day, read-out: TGI
[14] = tested on: A549; assay: Inhibition of cell migration in human A549 cells assessed as decrease in number of cells passing through membrane at 6.25 to 50 nM incubated for 24 hrs by transwell assay; assay type: functional, cell-based; settings: dose 6.25-50 nM

COc1cc(C(=O)n2nc(N)cc2-c2ccc(C)cc2)cc(OC)c1OC
inhibition [1]: 91.4%
inhibition [2]: Active
IC50 [3]: 60 nM
Activity [4]: Active
inhibition [5]: Dose-Dependent Effect
Activity [6]: 39.2%
Activity [7]: 7.65%
Activity [8]: Active
Activity [9]: Non-Toxic
Activity [10]: 80.2%
IC50 at 48 h [11]: 2730 nM
Activity [12]: Active
inhibition in vivo at 10 mg/kg [13]: 36.1%
inhibition [14]: Active
